Results taken from US9120791B2, “Indolizine compounds, a process for their preparation and pharmaceutical compositions containing them” (LES LABORATOIRES SERVIER, priority 2012, dated 2015).
Structures can show the parent of a compound that is named as a salt. Where two headings read alike, the source gives them in different places.

Assays:
Bcl-2 protein = Bcl-2 protein (Homo sapiens (Human), UniProt P10415); experiment: Inhibition of Bcl-2 by the fluorescence polarisation technique; format: binding; conditions: fluorescence polarisation test; concentration that inhibits fluorescence polarisation by 50%; read-out: IC50 (nM) Bcl-2 FP
Chain of Bcl-2 protein (P10415 whole entry): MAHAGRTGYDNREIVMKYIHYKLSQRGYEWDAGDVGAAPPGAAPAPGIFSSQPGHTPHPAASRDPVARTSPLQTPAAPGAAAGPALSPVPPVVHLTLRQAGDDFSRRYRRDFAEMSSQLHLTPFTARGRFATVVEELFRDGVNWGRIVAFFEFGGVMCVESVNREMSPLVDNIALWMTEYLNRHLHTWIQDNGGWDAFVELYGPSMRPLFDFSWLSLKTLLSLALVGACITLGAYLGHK
Procedure: The fluorescence polarisation tests were carried out on microplates (384 wells). […] After incubation for 2 hours, the fluorescence polarisation is measured.

[1] = system: RS4;11 leukaemia tumour line; experiment: In vitro cytotoxicity (Microculture Tetrazolium Assay, 48 hours); format: cell-based; conditions: RS4;11 cells, 48 hours exposure, MTT, concentration that inhibits cell viability by 50%, read-out: IC50 (nM) MTT RS4
Procedure: The cytotoxicity studies were carried out on the RS4;11 leukaemia tumour line.
The cells are distributed onto microplates and exposed to the test compounds for 48 hours.

[2] = system: cleaved form of caspase 3; experiment: Quantification of the cleaved form of caspase 3 in vivo (MSD ELISA, RS4;11 xenograft); parameters: species or system mice (SCID strain); conditions: oral treatment, RS4;11 xenograft in SCID mice
Procedure: (§1) The ability of the compounds of the invention to activate caspase 3 is evaluated in a xenograft model of RS4;11 leukaemia cells.
1×10^7 RS4;11 cells are grafted subcutaneously into immunosuppressed mice (SCID strain). 25 to 30 days after the graft, the animals are treated orally with the various compounds. After treatment, the tumour masses are recovered and lysed, and the cleaved (activated) form of caspase 3 is quantified in the tumour lysates.
The quantification is carried out using the “Meso Scale Discovery (MSD) ELISA platform” test, which specifically assays the cleaved form of caspase 3. It is expressed in the form of an activation factor corresponding to the ratio between the quantity of cleaved caspase 3 in the treated mice divided by the quantity of cleaved caspase 3 in the control mice.

caspase 3 = experiment: Induction of caspase activity in vivo (DEVDase activity in tumour lysates, RS4;11 xenograft); parameters: species or system mice (SCID strain); conditions: oral treatment, 16 hours after treatment, RS4;11 xenograft in SCID mice; for fold induction at 50 mg/kg / Activation factor (versus control), DEVDase activity in the tumours: 50 mg/kg
Procedure: as §1
1×10^7 RS4;11 cells are grafted sub-cutaneously into immunosuppressed mice (SCID strain). 25 to 30 days after the graft, the animals are treated orally with the various compounds. Sixteen hours after treatment, the tumour masses are recovered and lysed, and the caspase 3 activity is measured in the tumour lysates.
This enzymatic measurement is carried out by assaying the appearance of a fluorigenic cleavage product (DEVDase activity, Promega). It is expressed in the form of an activation factor corresponding to the ratio between the two caspase activities:the activity for the treated mice divided by the activity for the control mice.

[3] = Mus musculus, read-out: Activation factor (versus control), DEVDase activity in the tumours

Compound | IC50 (Bcl-2 protein) [nM] | IC50 ([1]; Homo sapiens) [nM] | Activation factor (versus control), cleaved caspase 3 MSD test in the tumours ([2]; 50 mg/kg) | fold induction at 50 mg/kg (caspase 3; [3]) | Activation factor (versus control), cleaved caspase 3 MSD test in the tumours ([2]; 25 mg/kg) | fold induction at 100 mg/kg (caspase 3; Mus musculus, 100 mg/kg, read-out: Activation factor (versus control), DEVDase activity in the tumours) | IC50 [1] [nM] | Activation factor (versus control), DEVDase activity in the tumours (caspase 3)
CCCCN(C(=O)c1cc(-c2cc3c(cc2C(=O)N2Cc4ccccc4C[C@H]2CN2CCOCC2)OCO3)n2c1CCCC2)c1ccc(O)cc1.Cl [Example 87, N-Butyl-N-(4-hydroxyphenyl)-3-{6-[((3S)-3-(4-morpholinylmethyl)-3,4-dihydro-2(1H)-isoquinolinyl)carbonyl]-1,3-benzodioxol-5-yl}-5,6,7,8-tetrahydro-1-indolizine carboxamide hydrochloride] | 27 | 121 | 18.3 (50 mg/kg) | – | – | – | – | –
Cn1ccc2cc(N(C(=O)c3cc(-c4cc5c(cc4C(=O)N4Cc6ccccc6C[C@H]4CN4CCOCC4)OCO5)n4ccccc34)c3ccc(O)cc3)ccc21 [Example 59, N-(4-Hydroxyphenyl)-N-(1-methyl-1H-indol-5-yl)-3-{6-[((3S)-3-(4-morpholinylmethyl)-3,4-dihydro-2(1H)-isoquinolinyl)carbonyl]-1,3-benzodioxol-5-yl}-1-indolizine carboxamide hydrochloride] | 13 | 8.13 | – | 23 | – | – | – | –
Cl.O=C(c1cc(-c2cc3c(cc2C(=O)N2Cc4ccccc4C[C@H]2CN2CCOCC2)OCO3)n2c1CCCC2)N(c1ccc(O)cc1)c1cccc(F)c1 [Example 122, N-(3-Fluorophenyl)-N-(4-hydroxyphenyl)-3-(6-{[(3S)-3-(morpholin-4-ylmethyl)-3,4-dihydroisoquinolin-2(1H)-yl]carbonyl}-1,3-benzdioxol-5-yl)-5,6,7,8-tetrahydroindolizine-1-carboxamide hydrochloride] | 16 | 43.5 | – | – | 17.4 (25 mg/kg) | – | – | –
CN1CCc2cc(N(C(=O)c3cc(-c4cc(Cl)ccc4C(=O)N4Cc5ccccc5C[C@H]4CN4CCOCC4)n4ccccc34)c3ccc(O)cc3)ccc21 [Example 66, 3-{5-Chloro-2-[((3S)-3-(4-morpholinylmethyl)-3,4-dihydro-2(1H)-isoquinolinyl)carbonyl]phenyl}-N-(4-hydroxyphenyl)-N-(1-methyl-2,3-dihydro-1H-indol-5-yl)-1-indolizine carboxamide bis(hydrochloride)] | 16 | 21.7 | – | 24.7 | – | – | – | –
Cc1ccc(N(C(=O)c2cc(-c3cc4c(cc3C(=O)N3Cc5ccccc5C[C@H]3CN3CCOCC3)OCO4)n3c2CCCC3)c2ccc(O)cc2)cc1 [Example 2, N-(4-Hydroxyphenyl)-N-(4-methylphenyl)-3-{6-[((3S)-3-(4-morpholinylmethyl)-3,4-dihydro-2(1H)-isoquinolinyl)carbonyl]-1,3-benzodioxol-5-yl}-5,6,7,8-tetrahydro-1-indolizine carboxamide hydrochloride] | 20 | 49.8 | – | – | – | 27.8 | – | –
Cn1ccc2cc(N(C(=O)c3cc(-c4cc(Cl)ccc4C(=O)N4Cc5ccccc5C[C@H]4CN4CCOCC4)n4ccccc34)c3ccc(O)cc3)ccc21 [Example 67, 3-{5-Chloro-2-[((3S)-3-(4-morpholinylmethyl)-3,4-dihydro-2(1H)-isoquinolinyl)carbonyl]phenyl}-N-(4-hydroxyphenyl)-N-(1-methyl-1H-indol-5-yl)-1-indolizine carboxamide hydrochloride] | 24 | 17.7 | – | 18.9 | – | – | – | –
O=C(c1cc(-c2cc3c(cc2C(=O)N2Cc4ccccc4C[C@H]2CN2CCOCC2)OCO3)n2c1CCCC2)N(c1ccc(O)cc1)c1ccc2c(c1)CCN2 [Example 8, N-(2,3-Dihydro-1H-indol-5-yl)-N-[4-(hydroxy)phenyl]-3-{6-[((3S)-3-(4-morpholinylmethyl)-3,4-dihydro-2(1H)-isoquinolinyl)carbonyl]-1,3-benzodioxol-5-yl}-5,6,7,8-tetrahydro-1-indolizine carboxamide bis(hydrochloride)] | 15 | 25.6 | – | 9.8 | – | – | – | –
Cl.O=C(c1cc(-c2cc(Cl)ccc2C(=O)N2Cc3ccccc3C[C@H]2CN2CCOCC2)n2c1COCC2)N(c1ccccc1)c1ccc(O)cc1 [Example 78, 6-{5-Chloro-2-[((3S)-3-(4-morpholinylmethyl)-3,4-dihydro-2(1H)-isoquinolinyl)carbonyl]phenyl}-N-(4-hydroxyphenyl)-N-phenyl-3,4-dihydro-1H-pyrrolo[2,1-c][1,4]oxazine-8-carboxamide hydrochloride] | 31 | 101 | – | – | 10.4 (25 mg/kg) | – | – | –
CN1CCc2cc(N(C(=O)c3cc(-c4cc(Cl)ccc4C(=O)N4Cc5ccccc5C[C@H]4CN4CCOCC4)n4c3CCCC4)c3ccc(O)cc3)ccc21 [Example 23, 3-{5-Chloro-2-[((3S)-3-(4-morpholinylmethyl)-3,4-dihydro-2(1H)-isoquinolinyl)carbonyl]phenyl}-N-(4-hydroxyphenyl)-N-(1-methyl-2,3-dihydro-1H-indol-5-yl)-5,6,7,8-tetrahydro-1-indolizine carboxamide bis(hydrochloride)] | 14 | 23 | – | 22.7 | – | – | – | –
CN1CCc2cc(N(C(=O)c3cc(-c4cc5c(cc4C(=O)N4Cc6ccccc6C[C@H]4CN4CCOCC4)OCO5)n4c3CCCC4)c3ccc(O)cc3)ccc21 [Example 9, N-[4-(Hydroxy)phenyl]-N-(1-methyl-2,3-dihydro-1H-indol-5-yl)-3-{6-[((3S)-3-(4-morpholinylmethyl)-3,4-dihydro-2(1H)-isoquinolinyl)carbonyl]-1,3-benzodioxol-5-yl}-5,6,7,8-tetrahydro-1-indolizine carboxamide hydrochloride] | 13 | 16.1 | – | 20.6 | – | – | – | –
Cl.Cn1cc(N(C(=O)c2cc(-c3cc(Cl)ccc3C(=O)N3Cc4ccccc4C[C@H]3CN3CCOCC3)n3c2CCCC3)c2ccc(O)cc2)cn1 [Example 135, 3-(5-Chloro-2-{[(3S)-3-(morpholin-4-ylmethyl)-3,4-dihydroisoquinolin-2(1H)-yl]carbonyl}phenyl)-N-(4-hydroxyphenyl)-N-(1-methyl-1H-pyrazol-4-yl)-5,6,7,8-tetrahydroindolizine-1-carboxamide hydrochloride] | 6 | 37.4 | 60 (50 mg/kg) | – | – | – | – | –
Cn1ccc2cc(N(C(=O)c3cc(-c4cc(Cl)ccc4C(=O)N4Cc5ccccc5C[C@H]4CN4CCOCC4)n4c3CCCC4)c3ccc(O)cc3)ccc21 [Example 22, 3-{5-Chloro-2-[((3S)-3-(4-morpholinylmethyl)-3,4-dihydro-2(1H)-isoquinolinyl)carbonyl]phenyl}-N-(4-hydroxyphenyl)-N-(1-methyl-1H-indol-5-yl)-5,6,7,8-tetrahydro-1-indolizine carboxamide hydrochloride] | 27 | 19.1 | – | 11.3 | – | – | – | –
Cl.O=C(c1cc(-c2cc3c(cc2C(=O)N2Cc4ccccc4C[C@H]2CN2CCOCC2)OCO3)n2ccccc12)N(c1ccccc1)c1ccc(O)cc1 [Example 58, N-(4-Hydroxyphenyl)-3-{6-[((3S)-3-(4-morpholinylmethyl)-3,4-dihydro-2(1H)-isoquinolinyl)carbonyl]-1,3benzodioxol-5-yl}-N-phenyl-indolizine carboxamide hydrochloride] | – | – | – | – | – | – | 40.1 | 23.3 (50 mg/kg)
Cl.O=C(c1cc(-c2cc3c(cc2C(=O)N2Cc4ccccc4C[C@H]2CN2CCOCC2)OCO3)n2c1CCCC2)N(c1ccc(O)cc1)c1ccc(Cl)cc1 [Example 3, N-(4-Chlorophenyl)-N-(4-hydroxyphenyl)-3-{6-[((3S)-3-(4-morpholinylmethyl)-3,4-dihydro-2(1H)-isquinolinyl)carbonyl]-1,3-benzdioxol-5-yl}-5,6,7,8-tetrahydro-1-indolizine carboxamide hydrochloride] | – | – | – | – | – | – | 44.7 | 5.7 (50 mg/kg)
Cc1ccc(N(C(=O)c2cc(-c3cc4c(cc3C(=O)N3Cc5ccccc5C[C@H]3CN3CCOCC3)OCO4)n3c2CCCC3)c2ccc(O)cc2)cc1F [Example 4, N-(3-Fluoro-4-methylphenyl)-N-(4-hydroxyphenyl)-3-{6-[((3S)-3-(4-morpholinylmethyl)-3,4-dihydro-2(1H)-isoquinolinyl)carbonyl]-1,3-benzodioxol-5-yl}-5,6,7,8-tetrahydro-1-indolizine carboxamide hydrochloride] | 19 | 27.1 | – | 29.2 | – | – | – | –
